From ChEMBL document CHEMBL5523759, “Discovery of Novel HDAC3 Inhibitors with PD-L1 Downregulating/Degrading and Antitumor Immune Effects” (J Med Chem, 2024)
pIC50: −log10 of the molar value. In brackets after ≈: the same amount, converted by molar mass. Activity calls are given as the source filed them. The rule behind the calls is not given here.

Key:
Jurkat = assay: Antiproliferative activity against human Jurkat T cells assessed as reduction in cell viability measured for 48 hrs by CCK-8 assay; format: functional, cell-based
HepG2 = assay: Antiproliferative activity against human HepG2 cells assessed as reduction in cell viability measured for 48 hrs by MTT assay; format: functional, cell-based; conditions: HepG2, 48 h
B16-F10 [1] = assay: Cytotoxicity against mouse B16-F10 cells assessed as increase in dead cells at 0.5 to 8 uM measured for 48 hrs by calcein-AM/propidium iodide staining based analysis; format: functional, cell-based; conditions: dose 0.5-8 µM
B16-F10 [2] = assay: Induction of apoptosis in mouse B16-F10 cells at 0.5 uM measured for 48 hrs by Annexin-V/FITC staining based flow cytometry analysis relative to control; format: functional
B16-F10 [3] = assay: Induction of apoptosis in mouse B16-F10 cells at 1 uM measured for 48 hrs by Annexin-V/FITC staining based flow cytometry analysis relative to control; format: functional
B16-F10 [4] = assay: Induction of apoptosis in mouse B16-F10 cells at 2 uM measured for 48 hrs by Annexin-V/FITC staining based flow cytometry analysis relative to control; format: functional
B16-F10 [5] = assay: Induction of apoptosis in mouse B16-F10 cells at 8 uM measured for 48 hrs by Annexin-V/FITC staining based flow cytometry analysis relative to control; format: functional
B16-F10 [6] = assay: Induction of cell cycle arrest in mouse B16-F10 cells assessed as accumulation of cells at G2/M phase measured for 48 hrs by flow cytometry analysis; format: functional, cell-based; conditions: dose 0.5-4 µM
B16-F10 [7] = assay: Induction of cell cycle arrest in mouse B16-F10 cells assessed as accumulation of cells at G0/G1 phase measured for 48 hrs by flow cytometry analysis; format: functional, cell-based; conditions: dose 0.5-4 µM
[8] = molecular target: T1, Protein deacetylase HDAC6 (Mus musculus) (UniProt Q9Z2V5); assay: Inhibition of HDAC6 in mouse B16-F10 cells assessed as effect on acetylated alpha-tubulin level at 1 to 2 uM measured for 24 hrs by Western blot analysis; format: cell-based; conditions: dose 1-2 µM
T1 sequence (whole entry): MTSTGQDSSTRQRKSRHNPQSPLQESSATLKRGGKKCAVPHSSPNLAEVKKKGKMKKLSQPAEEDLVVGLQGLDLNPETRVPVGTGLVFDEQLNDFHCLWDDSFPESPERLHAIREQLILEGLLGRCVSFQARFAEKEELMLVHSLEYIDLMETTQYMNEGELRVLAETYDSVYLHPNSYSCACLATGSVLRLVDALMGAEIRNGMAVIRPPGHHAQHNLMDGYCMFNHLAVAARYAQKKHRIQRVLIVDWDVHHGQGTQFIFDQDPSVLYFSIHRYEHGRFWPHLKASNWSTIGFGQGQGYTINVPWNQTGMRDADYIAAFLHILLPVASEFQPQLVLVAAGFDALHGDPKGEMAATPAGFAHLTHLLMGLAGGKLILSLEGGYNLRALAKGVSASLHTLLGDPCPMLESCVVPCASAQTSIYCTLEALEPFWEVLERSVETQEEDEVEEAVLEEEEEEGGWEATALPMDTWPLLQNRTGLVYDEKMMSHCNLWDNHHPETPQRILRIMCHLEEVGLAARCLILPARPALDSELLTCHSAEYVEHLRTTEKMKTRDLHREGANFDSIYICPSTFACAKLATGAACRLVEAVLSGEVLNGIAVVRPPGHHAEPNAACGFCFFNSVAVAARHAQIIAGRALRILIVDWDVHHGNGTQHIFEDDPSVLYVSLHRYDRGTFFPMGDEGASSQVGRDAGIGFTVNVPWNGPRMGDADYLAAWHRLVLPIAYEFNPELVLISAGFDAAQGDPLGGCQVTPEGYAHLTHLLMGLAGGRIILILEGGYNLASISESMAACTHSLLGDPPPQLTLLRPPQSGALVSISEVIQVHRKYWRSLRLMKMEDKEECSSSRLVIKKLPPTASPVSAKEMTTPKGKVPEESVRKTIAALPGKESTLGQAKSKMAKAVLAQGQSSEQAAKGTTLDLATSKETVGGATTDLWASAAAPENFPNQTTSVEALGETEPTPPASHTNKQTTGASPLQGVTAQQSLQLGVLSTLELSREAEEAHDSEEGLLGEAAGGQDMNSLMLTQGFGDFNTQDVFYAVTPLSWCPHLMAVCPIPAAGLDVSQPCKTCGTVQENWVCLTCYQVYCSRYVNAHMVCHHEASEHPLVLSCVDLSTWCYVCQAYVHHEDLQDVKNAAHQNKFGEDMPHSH

[9] = molecular target: T2, Histone deacetylase 8 (Mus musculus) (UniProt Q8VH37); assay: Inhibition of HDAC8 in mouse B16-F10 cells assessed as effect on acetylated SMC3 level at 1 to 2 uM measured for 24 hrs by Western blot analysis; format: cell-based; conditions: dose 1-2 µM
T2 sequence (whole entry): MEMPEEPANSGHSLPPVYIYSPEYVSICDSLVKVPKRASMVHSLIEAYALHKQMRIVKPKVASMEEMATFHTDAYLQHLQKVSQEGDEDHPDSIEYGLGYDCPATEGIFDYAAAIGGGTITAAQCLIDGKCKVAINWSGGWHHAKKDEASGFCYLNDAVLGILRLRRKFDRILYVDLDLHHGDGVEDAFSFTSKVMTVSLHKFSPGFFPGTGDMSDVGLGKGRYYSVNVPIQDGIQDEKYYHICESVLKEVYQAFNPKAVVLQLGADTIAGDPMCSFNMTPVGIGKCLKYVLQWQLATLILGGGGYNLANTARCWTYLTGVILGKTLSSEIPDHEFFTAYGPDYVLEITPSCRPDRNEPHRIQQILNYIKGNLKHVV

[10] = Aqueous solubility of compound measured for 24 hrs by shake flask based HPLC analysis; format: physicochemical; conditions: buffer

Compound	pIC50 (Jurkat)	pIC50 (HepG2)	Activity (B16-F10 [1])	Activity (B16-F10 [2]) [%]	Activity (B16-F10 [3]) [%]	Activity (B16-F10 [4]) [%]	Activity (B16-F10 [5]) [%]	Activity (B16-F10 [6])	Activity (B16-F10 [7])	inhibition [8]	inhibition [9]	solubility thermodynamic at 24 h [10] [µg/mL]
CCCNNC(=O)c1ccc(CNC(=O)c2ncc(CNc3ccccc3)s2)cc1	7.05	6.62	Active	21.23	31.49	61.84	71.07	Dose-Dependent Effect	Dose-Dependent Effect	inactive	inactive	15.6 (≈ 36.8 µM)
Nc1ccccc1NC(=O)c1ccc(-c2ncc(CNc3ccccc3)s2)cc1	6.85	6.02	Active	11	13.2	18.77	29.59	Dose-Dependent Effect	Dose-Dependent Effect	inactive	inactive	3.8 (≈ 9.49 µM)
